ChEMBL document CHEMBL3779774, “Efficient synthesis of novel disubstituted pyrido[3,4-b]pyrazines for the design of protein kinase inhibitors” (Medchemcomm, 2016)

Tests used:
[1] = target: Mitogen-activated protein kinase 1 (Homo sapiens, UniProt P28482); test: Inhibition of recombinant ERK2 (unknown origin) after 1 hr by Alphascreen assay
[2] = target: Homeodomain-interacting protein kinase 1 (Homo sapiens, UniProt Q86Z02); test: Inhibition of N-terminal His6-tagged recombinant human HIPK1 (158 to 555 residues) after 1 hr by Alphascreen assay
Homeodomain-interacting protein kinase 1, sequence (Q86Z02 whole entry, the tested form may be a part): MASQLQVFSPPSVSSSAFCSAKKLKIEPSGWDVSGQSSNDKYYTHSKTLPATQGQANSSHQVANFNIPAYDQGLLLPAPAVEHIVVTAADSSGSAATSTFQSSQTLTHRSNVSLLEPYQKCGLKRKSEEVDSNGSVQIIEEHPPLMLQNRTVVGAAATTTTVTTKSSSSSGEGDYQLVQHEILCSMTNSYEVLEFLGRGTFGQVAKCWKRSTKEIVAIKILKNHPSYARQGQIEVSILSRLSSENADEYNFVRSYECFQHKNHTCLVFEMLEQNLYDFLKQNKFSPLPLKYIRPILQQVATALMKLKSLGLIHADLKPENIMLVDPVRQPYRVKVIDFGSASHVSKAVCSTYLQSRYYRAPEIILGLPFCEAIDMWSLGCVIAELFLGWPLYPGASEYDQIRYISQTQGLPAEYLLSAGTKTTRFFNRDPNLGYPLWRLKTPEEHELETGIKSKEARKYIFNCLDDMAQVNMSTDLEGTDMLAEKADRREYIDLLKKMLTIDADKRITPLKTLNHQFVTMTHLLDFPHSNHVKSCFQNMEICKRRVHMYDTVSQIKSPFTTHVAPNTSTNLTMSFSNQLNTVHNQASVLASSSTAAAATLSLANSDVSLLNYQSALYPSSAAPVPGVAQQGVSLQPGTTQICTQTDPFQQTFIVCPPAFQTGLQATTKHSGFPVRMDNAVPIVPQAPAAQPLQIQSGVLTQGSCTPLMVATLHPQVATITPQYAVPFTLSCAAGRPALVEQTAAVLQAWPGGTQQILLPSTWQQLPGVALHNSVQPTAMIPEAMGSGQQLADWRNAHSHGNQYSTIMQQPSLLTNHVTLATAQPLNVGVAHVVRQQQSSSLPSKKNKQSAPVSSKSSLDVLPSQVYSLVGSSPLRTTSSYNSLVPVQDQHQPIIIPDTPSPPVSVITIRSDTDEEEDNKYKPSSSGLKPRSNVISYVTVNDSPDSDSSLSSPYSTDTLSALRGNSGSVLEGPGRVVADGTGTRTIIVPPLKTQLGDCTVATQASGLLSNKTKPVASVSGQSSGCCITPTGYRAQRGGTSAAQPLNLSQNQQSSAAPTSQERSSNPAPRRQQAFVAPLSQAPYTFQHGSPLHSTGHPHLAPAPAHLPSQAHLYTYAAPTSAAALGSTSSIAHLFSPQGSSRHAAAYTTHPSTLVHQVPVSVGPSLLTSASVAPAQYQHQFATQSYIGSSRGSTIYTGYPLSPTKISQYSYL

[3] = target: Serine/threonine-protein kinase pim-1 (Homo sapiens, UniProt P11309); test: Inhibition of N-terminal GST-tagged recombinant human full length Pim-1 expressed in Escherichia coli after 1 hr by Alphascreen assay
Serine/threonine-protein kinase pim-1, sequence (P11309 whole entry): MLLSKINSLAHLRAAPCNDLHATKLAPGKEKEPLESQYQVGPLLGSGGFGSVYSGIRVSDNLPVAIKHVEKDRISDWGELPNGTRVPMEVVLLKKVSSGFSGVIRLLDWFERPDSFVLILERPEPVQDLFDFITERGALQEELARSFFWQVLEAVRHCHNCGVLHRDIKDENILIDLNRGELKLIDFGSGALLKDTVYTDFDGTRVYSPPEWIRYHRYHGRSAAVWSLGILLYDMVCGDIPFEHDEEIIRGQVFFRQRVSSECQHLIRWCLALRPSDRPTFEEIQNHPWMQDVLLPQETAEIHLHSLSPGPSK

[4] = target: Vascular endothelial growth factor receptor 2 (Homo sapiens, UniProt P35968); test: Inhibition of N-terminal His6-tagged human recombinant KDR (790 to end residues) expressed in baculovirus infected insect Sf21 cells after 1 hr by Alphascreen assay
Vascular endothelial growth factor receptor 2, sequence (P35968 whole entry): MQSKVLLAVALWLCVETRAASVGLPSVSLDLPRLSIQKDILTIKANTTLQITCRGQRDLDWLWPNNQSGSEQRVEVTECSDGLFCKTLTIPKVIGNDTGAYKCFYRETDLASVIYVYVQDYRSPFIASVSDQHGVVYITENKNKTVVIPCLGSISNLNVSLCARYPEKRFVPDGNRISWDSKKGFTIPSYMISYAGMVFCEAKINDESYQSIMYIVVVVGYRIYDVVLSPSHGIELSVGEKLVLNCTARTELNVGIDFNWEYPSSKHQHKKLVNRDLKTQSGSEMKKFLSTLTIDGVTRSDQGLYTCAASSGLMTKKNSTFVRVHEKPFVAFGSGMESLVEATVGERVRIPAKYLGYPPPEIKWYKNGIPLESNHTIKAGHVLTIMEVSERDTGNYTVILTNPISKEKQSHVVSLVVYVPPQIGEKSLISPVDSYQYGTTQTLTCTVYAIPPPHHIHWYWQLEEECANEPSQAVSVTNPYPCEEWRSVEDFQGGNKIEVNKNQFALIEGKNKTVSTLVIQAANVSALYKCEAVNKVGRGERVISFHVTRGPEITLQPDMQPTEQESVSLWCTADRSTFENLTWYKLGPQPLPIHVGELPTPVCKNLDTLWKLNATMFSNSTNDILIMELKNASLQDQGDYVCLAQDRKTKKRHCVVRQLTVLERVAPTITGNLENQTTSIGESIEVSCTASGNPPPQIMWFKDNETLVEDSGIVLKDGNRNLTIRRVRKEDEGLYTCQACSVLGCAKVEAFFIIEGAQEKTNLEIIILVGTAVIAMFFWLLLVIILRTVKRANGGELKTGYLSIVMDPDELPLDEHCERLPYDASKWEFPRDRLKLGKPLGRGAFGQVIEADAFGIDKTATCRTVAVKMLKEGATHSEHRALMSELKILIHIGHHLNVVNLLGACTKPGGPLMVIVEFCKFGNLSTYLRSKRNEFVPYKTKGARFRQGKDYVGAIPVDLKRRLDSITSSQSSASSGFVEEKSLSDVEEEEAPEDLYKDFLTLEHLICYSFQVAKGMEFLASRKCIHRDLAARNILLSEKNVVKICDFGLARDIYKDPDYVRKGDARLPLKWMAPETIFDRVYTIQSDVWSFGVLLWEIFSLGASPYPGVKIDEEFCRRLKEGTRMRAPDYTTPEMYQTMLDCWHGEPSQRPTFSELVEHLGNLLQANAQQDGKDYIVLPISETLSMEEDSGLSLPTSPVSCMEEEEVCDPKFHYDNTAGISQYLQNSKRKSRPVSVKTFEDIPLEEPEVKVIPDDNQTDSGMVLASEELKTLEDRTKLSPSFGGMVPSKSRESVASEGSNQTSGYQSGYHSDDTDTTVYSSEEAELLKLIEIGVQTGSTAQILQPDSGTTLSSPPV

[5] = target: High affinity nerve growth factor receptor (Homo sapiens, UniProt P04629); test: Inhibition of N-terminal His6-tagged human recombinant TrkA (440 to end residues) expressed in baculovirus infected insect Sf21 cells after 1 hr by Alphascreen assay
High affinity nerve growth factor receptor, sequence (P04629 whole entry): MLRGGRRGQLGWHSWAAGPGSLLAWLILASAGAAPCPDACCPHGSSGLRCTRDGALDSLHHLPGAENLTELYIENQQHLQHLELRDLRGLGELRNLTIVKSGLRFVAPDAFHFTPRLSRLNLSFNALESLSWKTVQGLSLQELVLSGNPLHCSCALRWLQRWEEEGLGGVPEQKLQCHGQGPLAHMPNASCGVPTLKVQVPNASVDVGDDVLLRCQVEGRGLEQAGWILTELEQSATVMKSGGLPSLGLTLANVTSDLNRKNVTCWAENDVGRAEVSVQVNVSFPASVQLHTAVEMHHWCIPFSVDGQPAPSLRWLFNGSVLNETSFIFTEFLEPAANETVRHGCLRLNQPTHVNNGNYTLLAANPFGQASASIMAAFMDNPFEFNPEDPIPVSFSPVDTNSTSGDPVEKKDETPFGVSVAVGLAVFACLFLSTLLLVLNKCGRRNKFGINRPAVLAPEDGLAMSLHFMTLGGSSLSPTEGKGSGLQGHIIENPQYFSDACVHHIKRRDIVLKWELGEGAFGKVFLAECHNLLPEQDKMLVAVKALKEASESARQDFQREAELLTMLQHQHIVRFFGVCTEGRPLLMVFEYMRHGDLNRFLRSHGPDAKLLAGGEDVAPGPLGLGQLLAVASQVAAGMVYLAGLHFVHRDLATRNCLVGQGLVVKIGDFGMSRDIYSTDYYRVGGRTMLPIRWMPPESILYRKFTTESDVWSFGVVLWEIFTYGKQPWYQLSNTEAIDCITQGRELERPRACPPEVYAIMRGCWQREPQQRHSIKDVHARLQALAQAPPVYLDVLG

[6] = target: Tyrosine-protein kinase ABL1 (Homo sapiens, UniProt P00519); test: Inhibition of recombinant c-Abl (unknown origin) after 1 hr by Alphascreen assay
[7] = target: Tyrosine-protein kinase Yes (Homo sapiens, UniProt P07947); test: Inhibition of N-terminal His6-tagged human recombinant Yes expressed in baculovirus infected insect Sf21 cells after 1 hr by Alphascreen assay
Tyrosine-protein kinase Yes, sequence (P07947 whole entry): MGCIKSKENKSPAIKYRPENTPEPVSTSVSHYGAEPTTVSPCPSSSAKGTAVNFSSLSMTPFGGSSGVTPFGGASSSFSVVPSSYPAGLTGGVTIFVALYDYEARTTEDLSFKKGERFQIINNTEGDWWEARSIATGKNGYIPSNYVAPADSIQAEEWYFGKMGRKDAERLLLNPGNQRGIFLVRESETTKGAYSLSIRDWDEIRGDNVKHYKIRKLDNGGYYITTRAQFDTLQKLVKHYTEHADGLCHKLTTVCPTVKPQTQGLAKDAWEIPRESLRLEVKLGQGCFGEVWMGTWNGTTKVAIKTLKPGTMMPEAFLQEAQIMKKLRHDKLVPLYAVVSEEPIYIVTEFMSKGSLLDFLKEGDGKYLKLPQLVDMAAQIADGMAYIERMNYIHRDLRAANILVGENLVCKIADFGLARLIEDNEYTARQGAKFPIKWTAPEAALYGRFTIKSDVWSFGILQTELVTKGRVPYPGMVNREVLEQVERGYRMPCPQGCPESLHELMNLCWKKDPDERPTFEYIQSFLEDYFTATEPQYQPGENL

Mitogen-activated protein kinase 1, sequence (P28482 whole entry, the tested form may be a part): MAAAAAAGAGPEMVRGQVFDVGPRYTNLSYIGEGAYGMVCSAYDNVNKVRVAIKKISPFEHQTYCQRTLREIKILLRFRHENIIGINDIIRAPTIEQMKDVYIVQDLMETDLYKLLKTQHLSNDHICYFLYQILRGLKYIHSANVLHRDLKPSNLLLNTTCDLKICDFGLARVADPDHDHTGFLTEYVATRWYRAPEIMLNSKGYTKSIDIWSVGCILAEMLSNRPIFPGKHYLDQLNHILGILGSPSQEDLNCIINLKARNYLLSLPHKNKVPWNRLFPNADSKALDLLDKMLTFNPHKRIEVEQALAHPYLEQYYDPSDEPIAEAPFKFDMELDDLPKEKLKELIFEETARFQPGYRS

| IC50 [1] [µM] | IC50 [2] [µM] | IC50 [3] [µM] | IC50 [4] [µM] | IC50 [5] [µM] | IC50 [6] [µM] | IC50 [7] [µM] | Structure (SMILES) |
| --- | --- | --- | --- | --- | --- | --- | --- |
| > 100 | > 100 | > 100 | 16 | 13.7 | 11.5 | 12.6 | c1ccc(-c2cnc3c(Nc4ccc(N5CCOCC5)cc4)nccc3n2)cc1 |
| > 100 | > 100 | > 100 | > 100 | > 100 | 12.9 | 27.2 | c1ccc(-c2cnc3cc(Nc4ccc(N5CCCCC5)cc4)ncc3n2)cc1 |
| > 100 | > 100 | > 100 | 12 | 6.69 | 5.37 | 7.07 | COc1ccc(-c2cnc3c(Nc4ccc(N5CCOCC5)cc4)nccc3n2)cc1 |
| > 100 | > 100 | > 100 | > 100 | > 100 | > 100 | > 31.6 | COc1cccc(NC(=O)Nc2nccc3nc(-c4ccccc4)cnc23)c1 |
| > 100 | > 100 | > 100 | > 100 | > 100 | 30.8 | > 100 | CCNC(=O)Nc1nccc2nc(-c3ccccc3)cnc12 |
| > 100 | > 100 | > 100 | > 31.6 | > 100 | 16.6 | 20.4 | COc1ccccc1Nc1nccc2nc(-c3ccccc3)cnc12 |
| 16.6 | 12.7 | 11.3 | 8.84 | 9.36 | 7.71 | 11.1 | COc1cccc(Nc2cncc3ncc(-c4ccc(N5CCCCC5)cc4)nc23)c1 |
| 4.26 | 4.02 | 4.4 | 3.31 | 2.48 | 2.49 | 2.41 | COc1ccc(-c2cnc3cncc(Nc4ccc(N5CCOCC5)cc4)c3n2)cc1 |
| > 31.6 | > 100 | > 100 | > 31.6 | > 100 | > 100 | > 100 | C=CCNC(=O)Nc1cncc2nc(-c3ccccc3)cnc12 |
| 5.25 | 20.4 | 16.4 | > 100 | > 100 | 25.1 | 22.1 | COc1ccc(NC(=O)Nc2cncc3nc(-c4ccccc4)cnc23)cc1 |

More lines, now with the values behind:

| Structure (SMILES) | IC50 [1] [µM] | IC50 [2] [µM] | IC50 [3] [µM] | IC50 [4] [µM] | IC50 [5] [µM] | IC50 [6] [µM] | IC50 [7] [µM] |
| --- | --- | --- | --- | --- | --- | --- | --- |
| Fc1ccc(Nc2cncc3nc(-c4ccccc4)cnc23)cc1Cl | > 100 | > 100 | > 100 | > 100 | > 100 | > 100 | > 31.6 |
| C#Cc1cccc(Nc2nccc3nc(-c4ccccc4)cnc23)c1 | > 100 | > 100 | > 100 | > 100 | > 100 | > 100 | > 100 |
| COc1cccc(NC(=O)Nc2cncc3nc(-c4ccccc4)cnc23)c1 | > 31.6 | > 100 | > 31.6 | > 100 | > 100 | > 100 | > 31.6 |
| c1ccc(-c2cnc3cnc(Nc4ccc(N5CCOCC5)cc4)cc3n2)cc1 | > 100 | > 100 | > 100 | > 100 | > 100 | > 100 | > 100 |
| c1ccc(-c2cnc3cncc(Nc4ccc(N5CCOCC5)cc4)c3n2)cc1 | 8.43 | 8.15 | 8.3 | 6.12 | 5.32 | 5.27 | 5.11 |
| c1ccc(-c2cnc3c(Nc4ccc(N5CCCCC5)cc4)nccc3n2)cc1 | 1.42 | 0.922 | 4.91 | 1.1 | 5.81 | 2.66 | 8.1 |
| COc1ccc(-c2cnc3cncc(Nc4ccc(N5CCCCC5)cc4)c3n2)cc1 | 3.13 | 3.21 | 2.83 | 2.05 | 3.72 | 2.27 | 5.34 |
| c1ccc(Nc2cncc3ncc(-c4ccc(N5CCCCC5)cc4)nc23)cc1 | 12.2 | 11.8 | 31.2 | 11.1 | 7.79 | 6.84 | 8.82 |
| COc1cccc(Nc2cc3nc(-c4ccccc4)cnc3cn2)c1 | > 100 | > 100 | > 100 | > 100 | > 100 | > 100 | > 31.6 |
| c1ccc(-c2cnc3c(Nc4ccc(N5CCCCC5)cc4)cncc3n2)cc1 | 2.34 | 2.73 | 2.81 | 2.06 | 3.42 | 2.54 | 6.21 |
| c1ccc(Nc2cncc3nc(-c4ccc(N5CCCCC5)cc4)cnc23)cc1 | > 100 | > 100 | > 100 | > 100 | > 100 | 22.5 | > 31.6 |
| COc1ccc(Nc2nccc3nc(-c4ccccc4)cnc23)cc1 | > 100 | > 100 | > 100 | > 100 | > 100 | > 100 | 31.5 |
| COc1cccc(Nc2nccc3nc(-c4ccccc4)cnc23)c1 | > 100 | > 100 | > 100 | > 100 | > 100 | > 100 | > 100 |
| COc1ccc(-c2cnc3c(Nc4ccc(N5CCCCC5)cc4)nccc3n2)cc1 | 1.44 | 7.25 | 11.8 | 1.99 | 1.44 | 1.34 | 1.02 |
| c1ccc(-c2cnc3cnc(Nc4ccc(N5CCCCC5)cc4)cc3n2)cc1 | 23.2 | 30.5 | 27.4 | 17.1 | 9.24 | 8.71 | 23.1 |
| c1ccc(-c2cnc3cncc(Nc4ccc(N5CCCCC5)cc4)c3n2)cc1 | 2.02 | 2.59 | 2.61 | 1.56 | 3.23 | 2.16 | 5.56 |
| COc1ccc(-c2cnc3cncc(Nc4cc(OC)ccc4OC)c3n2)cc1 | 3.79 | 13.1 | 8.57 | 1.6 | 1.45 | 1.37 | 2.01 |
| COc1cccc(Nc2cncc3nc(-c4ccc(N5CCCCC5)cc4)cnc23)c1 | > 100 | > 100 | > 100 | > 100 | > 100 | 7.91 | > 31.6 |
